Measurements as given in patent publication US9604933B2, “Pyrazolochalcones as potential anticancer agents” (COUNCIL OF SCIENTIFIC AND INDUSTRIAL RESEARCH, priority 2013, dated 2017).
Where two headings read alike, the source gives them in different places.

Tests used:
RPMI-8226 = assay: NCI SRB cytotoxicity, leukemia RPMI-8226; format: cell-based; settings: Homo sapiens, 48 h exposure
Procedure: (§1) The pyrazolochalcones (7e, 8e, 10e, 11e, 12e, 13e and 8f) have been tested against fifty nine human tumor cell lines derived from nine cancer types (leukemia, non-small cell lung cancer, colon cancer, CNS cancer, melanoma, ovarian cancer, renal cancer, prostate cancer and breast cancer) as per the NCI protocol. For each compound, dose response curves for individual cell lines have been measured at a minimum of five concentrations at 10 fold dilutions. A protocol of 48 h continuous drug exposure has been used, and a sulforhodamine B (SRB) protein assay has been used to estimate cell viability or growth. The concentration for 50% cell growth inhibition (GI50), 50% cell death (LC50, 50% growth) and total cell growth inhibition (TGI, 0% growth) values were tabulated (Table-1). DMSO was used as control to calculate the values of GI50, LC50 and TGI. The compounds 7e, 8e, 10e, 11e, 12e, 13e and 8f has been evaluated for their in vitro cytotoxicity in […] cell lines from nine human cancer types of leukemia (K-562, SR), non-small cell lung (Hop-62, NCI-H226, NCI-H522), colon (HCT-116, HCT-15, HCC-2998), CNS (SF-539), melanoma (SK-MEL-5, UACC-62, M14), ovarian (IGROV1), renal (A498), prostate (PC3) and breast (BT-549, MDA-MB-435, HS578T) origin. The results are expressed as percent of cell growth determined relative to that of untreated control cells (Table 2).

HCT-116 = assay: NCI SRB cytotoxicity, colon HCT-116; format: cell-based; settings: Homo sapiens, 48 h exposure
Procedure: as §1

SF-268 = assay: NCI SRB cytotoxicity, CNS SF-268; format: cell-based; settings: Homo sapiens, 48 h exposure
Procedure: as §1

HCC-2998 = assay: NCI SRB cytotoxicity, colon HCC-2998; format: cell-based; settings: Homo sapiens, 48 h exposure
Procedure: as §1

A549/ATCC = assay: NCI SRB cytotoxicity, non-small cell lung A549/ATCC; format: cell-based; settings: Homo sapiens, 48 h exposure
Procedure: as §1

Ovarian = assay: NCI SRB cytotoxicity, ovarian panel average; format: cell-based, human; settings: average of cell lines
Procedure: as §1
(§2) Each cancer type represents the average of six to eight different cancer cell lines.

CNS = assay: NCI SRB cytotoxicity, CNS panel average; format: cell-based, human; settings: average of cell lines
Procedure: as §1, §2

SK-MEL-2 = assay: NCI SRB cytotoxicity, melanoma SK-MEL-2; format: cell-based; settings: Homo sapiens, 48 h exposure
Procedure: as §1

MDA-MB-435 [1] = assay: NCI SRB cytotoxicity, breast panel MDA-MB-435; format: cell-based; settings: Homo sapiens, 48 h exposure
Procedure: as §1

Leukemia = assay: NCI SRB cytotoxicity, leukemia panel average; format: cell-based, human; settings: average of cell lines
Procedure: as §1, §2

SF-539 = assay: NCI SRB cytotoxicity, CNS SF-539; format: cell-based; settings: Homo sapiens, 48 h exposure
Procedure: as §1

OVCAR-8 = assay: NCI SRB cytotoxicity, ovarian OVCAR-8; format: cell-based; settings: Homo sapiens, 48 h exposure
Procedure: as §1

MDA-MB-435 [2] = assay: NCI SRB cytotoxicity, melanoma MDA-MB-435; format: cell-based; settings: Homo sapiens, Melanoma panel MDA-MB-435, 48 h exposure
Procedure: as §1

UACC-62 = assay: NCI SRB cytotoxicity, melanoma UACC-62; format: cell-based; settings: Homo sapiens, 48 h exposure
Procedure: as §1

HCT-15 = assay: NCI SRB cytotoxicity, colon HCT-15; format: cell-based; settings: Homo sapiens, 48 h exposure
Procedure: as §1

COLO-205 = assay: NCI SRB cytotoxicity, colon COLO-205; format: cell-based; settings: Homo sapiens, 48 h exposure
Procedure: as §1

NCI/ADR-RES = assay: NCI SRB cytotoxicity, ovarian NCI/ADR-RES; format: cell-based; settings: Homo sapiens, 48 h exposure
Procedure: as §1

human tumor cell lines = assay: NCI SRB cytotoxicity, all fifty nine human tumor cell lines; format: cell-based; parameters: Log10 TGI mean graph midpoint (MG_MID): unit not given here; settings: for GI50: Homo sapiens
Procedure: as §1
The mean graph midpoint values of Log10 TGI and Log10 LC50 as well as Log10 GI50 for compounds 7e, 8e, 10e, 11e, 12e, 13e and 8f is listed in Table-3. […] The mean graph mid points of Log10 TGI and Log10, LC50 have shown similar pattern to the log10 GI50 mean graph mid points.

MDA-MB-231/ATCC = assay: NCI SRB cytotoxicity, breast MDA-MB-231/ATCC; format: cell-based; settings: Homo sapiens, 48 h exposure
Procedure: as §1

Colon = assay: NCI SRB cytotoxicity, colon panel average; format: cell-based, human; settings: average of cell lines
Procedure: as §1, §2

HT29 = assay: NCI SRB cytotoxicity, colon HT29; format: cell-based; settings: Homo sapiens, HT-29, 48 h exposure
Procedure: as §1

HS 578T = assay: NCI SRB cytotoxicity, breast HS 578T; format: cell-based; settings: Homo sapiens, 48 h exposure
Procedure: as §1

HOP-62 = assay: NCI SRB cytotoxicity, non-small cell lung HOP-62; format: cell-based; settings: Homo sapiens, 48 h exposure
Procedure: as §1

NCI-H522 = assay: NCI SRB cytotoxicity, non-small cell lung NCI-H522; format: cell-based; settings: Homo sapiens, 48 h exposure
Procedure: as §1

ACHN = assay: NCI SRB cytotoxicity, renal ACHN; format: cell-based; settings: Homo sapiens, 48 h exposure
Procedure: as §1

TK-10 = assay: NCI SRB cytotoxicity, renal TK-10; format: cell-based; settings: Homo sapiens, 48 h exposure
Procedure: as §1

OVCAR-3 = assay: NCI SRB cytotoxicity, ovarian OVCAR-3; format: cell-based; settings: Homo sapiens, 48 h exposure
Procedure: as §1

MOLT-4 = assay: NCI SRB cytotoxicity, leukemia MOLT-4; format: cell-based; settings: Homo sapiens, 48 h exposure
Procedure: as §1

PC-3 = assay: NCI SRB cytotoxicity, prostate PC-3; format: cell-based; settings: Homo sapiens, 48 h exposure
Procedure: as §1

SW-620 = assay: NCI SRB cytotoxicity, colon SW-620; format: cell-based; settings: Homo sapiens, 48 h exposure
Procedure: as §1

Prostate = assay: NCI SRB cytotoxicity, prostate panel average; format: cell-based, human; settings: average of cell lines
Procedure: as §1, §2

NCIH322M = assay: NCI SRB cytotoxicity, non-small cell lung NCIH322M; format: cell-based; settings: Homo sapiens, NCI-H322M, 48 h exposure
Procedure: as §1

Breast = assay: NCI SRB cytotoxicity, breast panel average; format: cell-based, human; settings: average of cell lines
Procedure: as §1, §2

CAKI-1 = assay: NCI SRB cytotoxicity, renal CAKI-1; format: cell-based; settings: Homo sapiens, 48 h exposure
Procedure: as §1

[3] = Homo sapiens, read-out: Log10 GI50 (concentration in mol/L causing 50% growth inhibition) (converted)
[4] = Homo sapiens, read-out: Log10 LC50 (concentration in mol/L causing 50% cell death) (converted)

SMILES: COc1ccc(C(=O)/C=C/c2cc(-c3cc(OC)c(OC)c(OC)c3)n[nH]2)cc1OC [8e, (E)-1-(3,4-dimethoxyphenyl)-3-(3-(3,4,5-trimethoxyphenyl)-1H-pyrazol-5-yl)prop-2-en-1-one]
- GI50 (RPMI-8226): 240 nM
- GI50 (HCT-116): 880 nM
- GI50 (SF-268): 1820 nM
- GI50 (HCC-2998): 2130 nM
- GI50 (A549/ATCC): 1860 nM
- GI50 (Ovarian; [3]): 2090 nM
- CC50 (Ovarian; [4]): 15.1 µM
- Log10 TGI (concentration in mol/L causing total growth inhibition (0% growth)) (Ovarian): −5.29 mol/L
- GI50 (CNS; [3]): 1410 nM
- LC50 (CNS; [4]): 6.17 µM
- Log10 TGI (concentration in mol/L causing total growth inhibition (0% growth)) (CNS): −5.53 mol/L
- GI50 (SK-MEL-2): 1850 nM
- GI50 (MDA-MB-435 [1]): 750 nM
- GI50 (Leukemia; [3]): 794 nM
- CC50 (Leukemia; [4]): 97.7 µM
- Log10 TGI (concentration in mol/L causing total growth inhibition (0% growth)) (Leukemia): −5.19 mol/L
- GI50 (SF-539): 1270 nM
- GI50 (OVCAR-8): 1320 nM
- GI50 (MDA-MB-435 [2]): 1340 nM
- GI50 (UACC-62): 1740 nM
- GI50 (HCT-15): 1270 nM
- GI50 (COLO-205): 1740 nM
- GI50 (NCI/ADR-RES): 3.13 µM
- GI50 (human tumor cell lines; across fifty nine cell lines in nine cell panels, read-out: GI50 value range): 180 to 29200 nM
- GI50 (human tumor cell lines; against human tumor cell lines, read-out: Log10 GI50 mean graph midpoint (MG_MID) (converted)): 1350 nM
- cytotoxicity (human tumor cell lines; against cancer cell lines, in words): significant cytotoxicity
- Log10 TGI mean graph midpoint (MG_MID) (human tumor cell lines; against human tumor cell lines): −5.47
- LC50 (human tumor cell lines; against human tumor cell lines, read-out: Log10 LC50 mean graph midpoint (MG_MID) (converted)): 10.5 µM
- GI50 (MDA-MB-231/ATCC): 1480 nM
- GI50 (Colon; [3]): 1410 nM
- LC50 (Colon; [4]): 6.17 µM
- Log10 TGI (concentration in mol/L causing total growth inhibition) (Colon): −5.52 mol/L
- GI50 (HT29): 1620 nM
- GI50 (HS 578T): 2570 nM
- GI50 (HOP-62): 1440 nM
- GI50 (NCI-H522): 180 nM
- GI50 (ACHN): 1660 nM
- GI50 (TK-10): 1330 nM
- GI50 (OVCAR-3): 1680 nM
- GI50 (MOLT-4): 2110 nM
- GI50 (PC-3): 1360 nM
- GI50 (SW-620): 1370 nM
- GI50 (Prostate; [3]): 871 nM
- CC50 (Prostate; [4]): 5.25 µM
- Log10 TGI (concentration in mol/L causing total growth inhibition (0% growth)) (Prostate): −5.64 mol/L
- GI50 (NCIH322M): 1520 nM
- GI50 (Breast; [3]): 1230 nM
- CC50 (Breast; [4]): 15.1 µM
- Log10 TGI (concentration in mol/L causing total growth inhibition (0% growth)) (Breast): −5.47 mol/L
- GI50 (CAKI-1): 2200 nM
